Measurements reported in paper PMC8775250, “Cryo-EM Structure of the Rhodobacter sphaeroides Light-Harvesting 2 Complex at 2.1 Å” (Biochemistry, 2021).

Molecular target: T1, Rba. sphaeroides LH2 complex (light-harvesting 2 antenna, LH2 αβ) (Cereibacter sphaeroides, UniProt Q3J144+Q3J145)
T1 construct: gene pucA; native untagged complex purified from Rba. sphaeroides B7 membranes in LDAO; nonamer of αβ heterodimers; alpha N-terminal carboxymethionine; beta C-terminus Gly51
Test: cryo-EM structure ([…] Å)
Type: binding
Settings: one carotenoid per αβ heterodimer (9 per nonamer); native bound pigment; pH 7.8, LDAO

T1 sequence (Q3J145 whole entry): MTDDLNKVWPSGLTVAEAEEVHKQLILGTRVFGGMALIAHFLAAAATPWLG
T1 sequence (Q3J144 1-50): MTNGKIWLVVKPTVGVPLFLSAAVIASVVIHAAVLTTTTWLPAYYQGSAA

COC(C)(C)C/C=C/C(C)=C/C=C/C(C)=C/C=C/C(C)=C/C=C/C=C(C)/C=C/C=C(\C)CC/C=C(\C)CCC=C(C)C [spheroidene]
cryo-EM structure (2.1 Å): the carotenoid spheroidene adopts an all-trans conformation as it winds through the LH2 complex
